Source: article PMC7347136 (PLoS ONE, 2020)

How the values were obtained:
Assay in all cases: Carna kinase panel screen
Type in all cases: biochemical
Details in all cases: read-out: % Inhibition ± SD
ROS = target: T1, ROS (Homo sapiens, UniProt P08922)
T1 construct: purchased Carna Biosciences
Summary of the method: (§1)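 IC50 from a 10-point concentration series run at ATP near Km; percent inhibition per concentration fitted to a four-parameter logistic curve.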

MARK1 = target: T2, MARK1 (Homo sapiens, UniProt Q9P0L2)
T2 construct: purchased Carna Biosciences
T2 sequence (Q9P0L2 whole entry): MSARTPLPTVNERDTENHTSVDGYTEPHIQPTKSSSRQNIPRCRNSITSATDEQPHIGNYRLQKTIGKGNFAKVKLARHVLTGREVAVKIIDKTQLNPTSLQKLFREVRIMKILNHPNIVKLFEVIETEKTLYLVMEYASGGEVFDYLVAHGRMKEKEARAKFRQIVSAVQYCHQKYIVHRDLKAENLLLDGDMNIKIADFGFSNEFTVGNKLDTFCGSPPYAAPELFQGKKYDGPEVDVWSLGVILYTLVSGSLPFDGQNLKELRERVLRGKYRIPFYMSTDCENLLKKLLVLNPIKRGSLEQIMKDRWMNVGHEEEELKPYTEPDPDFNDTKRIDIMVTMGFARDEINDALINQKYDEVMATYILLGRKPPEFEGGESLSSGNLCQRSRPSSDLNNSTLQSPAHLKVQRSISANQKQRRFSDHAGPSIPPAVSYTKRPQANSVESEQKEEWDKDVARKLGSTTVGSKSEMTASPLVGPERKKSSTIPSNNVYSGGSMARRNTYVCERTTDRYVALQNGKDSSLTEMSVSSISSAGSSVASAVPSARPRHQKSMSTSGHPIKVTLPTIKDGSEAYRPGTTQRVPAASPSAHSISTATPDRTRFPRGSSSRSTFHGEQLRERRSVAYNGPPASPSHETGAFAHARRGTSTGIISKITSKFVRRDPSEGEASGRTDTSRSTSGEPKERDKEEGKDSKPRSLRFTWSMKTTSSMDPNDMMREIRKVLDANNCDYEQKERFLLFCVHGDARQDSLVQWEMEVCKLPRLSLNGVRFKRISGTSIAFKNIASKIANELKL
Summary of the method: as §1

PASK = target: T3, PASK (Homo sapiens, UniProt Q96RG2)
T3 construct: purchased Carna Biosciences
Summary of the method: as §1

ARG = target: T4, ARG (Homo sapiens, UniProt P42684)
T4 construct: purchased Carna Biosciences
Summary of the method: (§2)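 Inhibition was measured across ten compound concentrations at Km-approximating ATP. A four-parameter logistic curve fitted to the percentage-inhibition data yields the IC50.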

EGFR = target: T5, EGFR (Homo sapiens, UniProt P00533)
T5 construct: purchased Carna Biosciences
Summary of the method: (§3)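 Ten concentrations per compound, ATP approximately at Km, percent inhibition calculated per well and fitted to a 4-parameter logistic for IC50.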

BRAF = target: T6, BRAF (Homo sapiens, UniProt P15056)
T6 construct: purchased Carna Biosciences
Summary of the method: as §1

FLT1 = target: T7, FLT1 (Homo sapiens, UniProt P17948)
T7 construct: purchased Carna Biosciences
Summary of the method: as §1

NEK2 = target: T8, NEK2 (Homo sapiens, UniProt P51955)
T8 construct: purchased Carna Biosciences
Summary of the method: as §1

TNK1 = target: T9, TNK1 (Homo sapiens, UniProt Q13470)
T9 construct: purchased Carna Biosciences
Summary of the method: as §1

MAP2K5 = target: T10, MAP2K5 (Homo sapiens, UniProt Q13163)
T10 construct: purchased Carna Biosciences
Summary of the method: as §2

PRKX = target: T11, PRKX (Homo sapiens, UniProt P51817)
T11 construct: purchased Carna Biosciences
T11 sequence (P51817 whole entry): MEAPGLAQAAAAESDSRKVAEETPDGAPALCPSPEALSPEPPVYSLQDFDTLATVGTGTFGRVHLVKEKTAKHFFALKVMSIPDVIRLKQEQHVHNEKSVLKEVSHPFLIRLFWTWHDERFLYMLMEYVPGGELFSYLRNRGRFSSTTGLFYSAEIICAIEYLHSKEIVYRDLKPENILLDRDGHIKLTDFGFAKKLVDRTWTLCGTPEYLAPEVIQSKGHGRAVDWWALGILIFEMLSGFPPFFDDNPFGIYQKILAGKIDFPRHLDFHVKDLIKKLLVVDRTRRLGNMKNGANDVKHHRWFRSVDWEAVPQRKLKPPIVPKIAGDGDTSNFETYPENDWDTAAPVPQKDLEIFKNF
Summary of the method: as §1

PKCb1 = target: T12, PKCb1 (Homo sapiens, UniProt P05771)
T12 construct: purchased Carna Biosciences
Summary of the method: as §1

DCAMKL2 = target: T13, DCAMKL2 (Homo sapiens, UniProt Q8N568)
T13 construct: purchased Carna Biosciences
Summary of the method: as §1

MST3 = target: T14, MST3 (Homo sapiens, UniProt Q9Y6E0)
T14 construct: purchased Carna Biosciences
Summary of the method: as §1

TTK = target: T15, TTK (Homo sapiens, UniProt P33981)
T15 construct: purchased Carna Biosciences
Summary of the method: as §1

EGFR[L858R] = target: T16, EGFR[L858R] (Homo sapiens, UniProt P00533, L858R)
T16 construct: purchased Carna Biosciences
Summary of the method: as §1

MARK3 = target: T17, MARK3 (Homo sapiens, UniProt P27448)
T17 construct: purchased Carna Biosciences
Summary of the method: as §1

NEK6 = target: T18, NEK6 (Homo sapiens, UniProt Q9HC98)
T18 construct: purchased Carna Biosciences
Summary of the method: as §1

WEE1 = target: T19, WEE1 (Homo sapiens, UniProt P30291)
T19 construct: purchased Carna Biosciences
Summary of the method: as §1

skMLCK = target: T20, skMLCK (Homo sapiens, UniProt Q9H1R3)
T20 construct: purchased Carna Biosciences
Summary of the method: as §1

CSK = target: T21, CSK (Homo sapiens, UniProt P41240)
T21 construct: purchased Carna Biosciences
T21 sequence (P41240 whole entry): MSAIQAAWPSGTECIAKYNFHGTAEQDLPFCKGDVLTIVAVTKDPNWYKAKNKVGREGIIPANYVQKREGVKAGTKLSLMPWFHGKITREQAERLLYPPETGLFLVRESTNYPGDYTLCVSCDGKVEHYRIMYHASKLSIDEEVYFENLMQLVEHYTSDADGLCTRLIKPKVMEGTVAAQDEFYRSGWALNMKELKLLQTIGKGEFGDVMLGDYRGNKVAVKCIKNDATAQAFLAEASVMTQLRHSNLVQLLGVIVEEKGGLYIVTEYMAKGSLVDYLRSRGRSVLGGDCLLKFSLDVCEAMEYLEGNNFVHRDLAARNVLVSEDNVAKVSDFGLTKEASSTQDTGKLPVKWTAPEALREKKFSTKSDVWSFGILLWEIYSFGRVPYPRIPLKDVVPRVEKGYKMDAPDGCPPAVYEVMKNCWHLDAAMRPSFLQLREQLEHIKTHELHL
Summary of the method: as §1

Erk5 = target: T22, Erk5 (Homo sapiens, UniProt Q13164)
T22 construct: purchased Carna Biosciences
Summary of the method: as §1

CDK4 = target: T23, CDK4 (Homo sapiens, UniProt P11802)
T23 construct: purchased Carna Biosciences
Summary of the method: as §3

CTK = target: T24, CTK (Homo sapiens, UniProt P42679)
T24 construct: purchased Carna Biosciences
Summary of the method: as §1

PLK2 = target: T25, PLK2 (Homo sapiens, UniProt Q9NYY3)
T25 construct: purchased Carna Biosciences
T25 sequence (Q9NYY3 whole entry): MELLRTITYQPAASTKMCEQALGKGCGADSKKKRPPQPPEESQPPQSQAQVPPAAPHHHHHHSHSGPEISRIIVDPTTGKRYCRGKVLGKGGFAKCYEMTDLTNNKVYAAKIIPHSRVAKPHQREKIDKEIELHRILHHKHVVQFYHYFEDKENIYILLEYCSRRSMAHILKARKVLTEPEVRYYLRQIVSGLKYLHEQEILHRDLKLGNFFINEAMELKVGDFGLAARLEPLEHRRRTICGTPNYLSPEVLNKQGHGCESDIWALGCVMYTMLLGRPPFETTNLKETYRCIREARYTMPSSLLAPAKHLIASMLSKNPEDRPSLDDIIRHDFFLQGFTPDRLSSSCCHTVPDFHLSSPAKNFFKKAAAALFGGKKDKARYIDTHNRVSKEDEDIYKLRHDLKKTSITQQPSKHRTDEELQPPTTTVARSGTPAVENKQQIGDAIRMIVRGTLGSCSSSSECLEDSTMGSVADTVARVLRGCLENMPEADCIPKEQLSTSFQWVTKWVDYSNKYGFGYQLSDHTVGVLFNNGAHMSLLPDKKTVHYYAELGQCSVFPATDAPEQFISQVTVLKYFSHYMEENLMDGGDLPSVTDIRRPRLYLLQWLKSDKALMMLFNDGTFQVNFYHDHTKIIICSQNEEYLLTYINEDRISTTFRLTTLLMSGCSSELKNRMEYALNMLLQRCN
Summary of the method: as §1

AurC = target: T26, AurC (Homo sapiens, UniProt Q9UQB9)
T26 construct: purchased Carna Biosciences
Summary of the method: as §2

TBK1 = target: T27, TBK1 (Homo sapiens, UniProt Q9UHD2)
T27 construct: purchased Carna Biosciences
T27 sequence (Q9UHD2 whole entry): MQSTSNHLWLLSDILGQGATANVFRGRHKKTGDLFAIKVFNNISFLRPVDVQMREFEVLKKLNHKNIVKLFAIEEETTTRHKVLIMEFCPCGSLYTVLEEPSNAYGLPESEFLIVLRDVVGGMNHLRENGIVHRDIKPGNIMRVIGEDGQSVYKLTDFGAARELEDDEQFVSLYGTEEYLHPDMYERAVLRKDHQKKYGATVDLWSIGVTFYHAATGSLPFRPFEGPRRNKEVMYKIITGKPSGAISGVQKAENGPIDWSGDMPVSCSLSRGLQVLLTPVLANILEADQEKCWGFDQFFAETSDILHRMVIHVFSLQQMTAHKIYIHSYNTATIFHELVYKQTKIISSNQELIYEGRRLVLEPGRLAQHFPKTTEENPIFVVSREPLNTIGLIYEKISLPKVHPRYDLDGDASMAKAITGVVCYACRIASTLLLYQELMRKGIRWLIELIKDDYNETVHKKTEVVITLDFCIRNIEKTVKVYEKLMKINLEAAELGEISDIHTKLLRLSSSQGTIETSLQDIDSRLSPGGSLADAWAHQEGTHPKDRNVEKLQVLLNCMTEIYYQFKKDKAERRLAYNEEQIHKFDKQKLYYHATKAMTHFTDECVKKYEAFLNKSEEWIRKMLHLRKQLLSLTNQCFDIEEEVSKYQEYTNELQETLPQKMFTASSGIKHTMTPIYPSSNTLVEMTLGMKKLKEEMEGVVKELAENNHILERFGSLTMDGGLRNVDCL
Summary of the method: as §1

ALK = target: T28, ALK (Homo sapiens, UniProt Q9UM73)
T28 construct: purchased Carna Biosciences
Summary of the method: as §1

HGK = target: T29, HGK (Homo sapiens, UniProt O95819)
T29 construct: purchased Carna Biosciences
Summary of the method: as §1

FGR = target: T30, FGR (Homo sapiens, UniProt P09769)
T30 construct: purchased Carna Biosciences
Summary of the method: as §3

MAP3K1 = target: T31, MAP3K1 (Homo sapiens, UniProt Q13233)
T31 construct: purchased Carna Biosciences
Summary of the method: as §1

MAP2K1 = target: T32, MAP2K1 (Homo sapiens, UniProt Q02750)
T32 construct: purchased Carna Biosciences
Summary of the method: as §1

TSSK1 = target: T33, TSSK1 (Homo sapiens, UniProt Q9BXA7)
T33 construct: purchased Carna Biosciences
T33 sequence (Q9BXA7 whole entry): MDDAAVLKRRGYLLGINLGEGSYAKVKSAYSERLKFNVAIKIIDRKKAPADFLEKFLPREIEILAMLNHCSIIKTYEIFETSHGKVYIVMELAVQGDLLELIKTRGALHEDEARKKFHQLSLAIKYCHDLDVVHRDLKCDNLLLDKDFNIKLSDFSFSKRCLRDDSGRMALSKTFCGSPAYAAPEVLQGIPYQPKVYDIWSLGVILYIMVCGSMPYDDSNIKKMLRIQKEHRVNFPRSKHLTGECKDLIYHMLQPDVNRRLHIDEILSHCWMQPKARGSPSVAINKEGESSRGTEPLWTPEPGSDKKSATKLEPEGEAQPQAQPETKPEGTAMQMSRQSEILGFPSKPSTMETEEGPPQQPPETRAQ
Summary of the method: as §1

IKKb = target: T34, IKKb (Homo sapiens, UniProt O14920)
T34 construct: purchased Carna Biosciences
Summary of the method: as §1

CK2a1 = target: T35, CK2a1 (Homo sapiens, UniProt P68400)
T35 construct: purchased Carna Biosciences
T35 sequence (P68400 whole entry): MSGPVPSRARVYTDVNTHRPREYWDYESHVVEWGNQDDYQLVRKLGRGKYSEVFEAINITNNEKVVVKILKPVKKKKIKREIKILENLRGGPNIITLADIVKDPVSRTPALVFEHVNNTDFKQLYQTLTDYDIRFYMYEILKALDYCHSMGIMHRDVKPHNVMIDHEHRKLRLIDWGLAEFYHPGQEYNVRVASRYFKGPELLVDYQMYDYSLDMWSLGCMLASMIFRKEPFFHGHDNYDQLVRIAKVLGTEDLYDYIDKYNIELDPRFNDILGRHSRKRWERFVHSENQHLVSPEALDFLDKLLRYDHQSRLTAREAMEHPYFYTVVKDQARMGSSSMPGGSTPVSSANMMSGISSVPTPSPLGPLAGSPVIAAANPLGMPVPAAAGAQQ
T35 sequence (P67870 whole entry partner): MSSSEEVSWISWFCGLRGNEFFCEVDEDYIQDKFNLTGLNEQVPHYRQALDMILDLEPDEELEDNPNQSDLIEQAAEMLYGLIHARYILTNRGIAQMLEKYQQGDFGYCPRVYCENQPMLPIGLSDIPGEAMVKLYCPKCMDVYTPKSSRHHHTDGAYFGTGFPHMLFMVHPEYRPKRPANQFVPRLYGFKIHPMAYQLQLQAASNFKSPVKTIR
Summary of the method: as §1

CDC7 = target: T36, CDC7 (Homo sapiens, UniProt O00311)
T36 construct: purchased Carna Biosciences
Summary of the method: as §1

DYRK1B = target: T37, DYRK1B (Homo sapiens, UniProt Q9Y463)
T37 construct: purchased Carna Biosciences
Summary of the method: as §1

HIPK3 = target: T38, HIPK3 (Homo sapiens, UniProt Q9H422)
T38 construct: purchased Carna Biosciences
Summary of the method: as §1

PKCa = target: T39, PKCa (Homo sapiens, UniProt P17252)
T39 construct: purchased Carna Biosciences
Summary of the method: as §1

PDK1 = target: T40, PDK1 (Homo sapiens, UniProt O15530)
T40 construct: purchased Carna Biosciences
Summary of the method: as §1

MRCKa = target: T41, MRCKa (Homo sapiens, UniProt Q5VT25)
T41 construct: purchased Carna Biosciences
Summary of the method: as §1

ACK = target: T42, ACK (Homo sapiens, UniProt Q07912)
T42 construct: purchased Carna Biosciences
Summary of the method: as §1

AKT3 = target: T43, AKT3 (Homo sapiens, UniProt Q9Y243)
T43 construct: purchased Carna Biosciences
Summary of the method: as §1

FGFR2 = target: T44, FGFR2 (Homo sapiens, UniProt P21802)
T44 construct: purchased Carna Biosciences
T44 sequence (P21802 22-821): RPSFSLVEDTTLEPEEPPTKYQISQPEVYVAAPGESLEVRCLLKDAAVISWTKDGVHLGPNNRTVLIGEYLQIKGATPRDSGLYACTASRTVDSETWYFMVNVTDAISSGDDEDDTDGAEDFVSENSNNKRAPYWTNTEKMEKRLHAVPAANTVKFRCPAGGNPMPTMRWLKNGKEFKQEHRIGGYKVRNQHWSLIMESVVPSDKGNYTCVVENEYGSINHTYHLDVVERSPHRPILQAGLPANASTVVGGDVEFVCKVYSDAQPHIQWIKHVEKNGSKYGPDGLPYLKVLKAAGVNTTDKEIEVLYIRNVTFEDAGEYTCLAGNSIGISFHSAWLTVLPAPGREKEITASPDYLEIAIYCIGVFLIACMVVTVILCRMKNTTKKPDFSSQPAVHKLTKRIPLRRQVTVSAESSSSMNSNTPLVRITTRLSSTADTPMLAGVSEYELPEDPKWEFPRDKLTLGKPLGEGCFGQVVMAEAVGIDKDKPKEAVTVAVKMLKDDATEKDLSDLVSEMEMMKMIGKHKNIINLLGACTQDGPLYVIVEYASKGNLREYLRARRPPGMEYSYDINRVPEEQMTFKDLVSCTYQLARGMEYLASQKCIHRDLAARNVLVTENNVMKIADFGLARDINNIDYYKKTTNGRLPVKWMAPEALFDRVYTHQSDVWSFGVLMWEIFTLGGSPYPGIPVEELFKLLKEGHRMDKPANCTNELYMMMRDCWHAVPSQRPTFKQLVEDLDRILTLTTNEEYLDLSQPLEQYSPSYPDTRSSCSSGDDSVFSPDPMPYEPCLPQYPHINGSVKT
Summary of the method: as §1

CC[C@H](Nc1nc(NCc2cnc(C)cc2C)c2ncn(C(C)C)c2n1)[C@@H](C)O [Fadraciclib, 2-pentanol, 3-[[6-[[(4,6-dimethyl-3-pyridinyl)methyl]amino]-9-(1-methylethyl)-9Hpurin-2-yl]amino]-, (2R,3S)]
inhibition at 1 µM (ROS): -2 ± 0.1%
inhibition at 1 µM (MARK1): -9.7 ± 0.1%
inhibition at 1 µM (PASK): -0.4%
inhibition at 1 µM (ARG): 1.8 ± 0.1%
inhibition at 1 µM (EGFR): -10.8 ± 0.4%
inhibition at 1 µM (BRAF): -8.4 ± 1%
inhibition at 1 µM (FLT1): 1.9%
inhibition at 1 µM (NEK2): -18.1 ± 0.6%
inhibition at 1 µM (TNK1): -0.2 ± 0.2%
inhibition at 1 µM (MAP2K5): 11.9 ± 1.6%
inhibition at 1 µM (PRKX): -4.2%
inhibition at 1 µM (PKCb1): -1.9%
inhibition at 1 µM (DCAMKL2): -12.4 ± 0.1%
inhibition at 1 µM (MST3): -16.4 ± 0.7%
inhibition at 1 µM (TTK): 25.3 ± 4.5%
inhibition at 1 µM (EGFR[L858R]): 1.7%
inhibition at 1 µM (MARK3): -0.9 ± 0.1%
inhibition at 1 µM (NEK6): -16.6 ± 0.5%
inhibition at 1 µM (WEE1): 35.1 ± 0.1%
inhibition at 1 µM (skMLCK): -9.8 ± 1.1%
inhibition at 1 µM (CSK): -18.7 ± 0.4%
inhibition at 1 µM (Erk5): 3.7 ± 0.1%
inhibition at 1 µM (CDK4): 75.7 ± 5%
inhibition at 1 µM (CTK): 3.4 ± 0.2%
inhibition at 1 µM (PLK2): 1%
inhibition at 1 µM (AurC): 3 ± 0.2%
inhibition at 1 µM (TBK1): -4.8 ± 0.1%
inhibition at 1 µM (ALK): -9 ± 0.3%
inhibition at 1 µM (HGK): -23.8 ± 2.7%
inhibition at 1 µM (FGR): 3.3 ± 0.1%
inhibition at 1 µM (MAP3K1): -6.6 ± 0.1%
inhibition at 1 µM (MAP2K1): -6.8 ± 0.1%
inhibition at 1 µM (TSSK1): 16 ± 0.5%
inhibition at 1 µM (IKKb): 0.2%
inhibition at 1 µM (CK2a1): -22.8 ± 0.7%
inhibition at 1 µM (CDC7): -5.7%
inhibition at 1 µM (DYRK1B): 15.5 ± 1.3%
inhibition at 1 µM (HIPK3): -1.1%
inhibition at 1 µM (PKCa): 17.8 ± 0.5%
inhibition at 1 µM (PDK1): -5.4 ± 0.1%
inhibition at 1 µM (MRCKa): -14.8 ± 0.1%
inhibition at 1 µM (ACK): -0.7%
inhibition at 1 µM (AKT3): 2.4 ± 0.3%
inhibition at 1 µM (FGFR2): -17.6 ± 2.2%
